Test results as given in EP0012051A1, “3-Amino-2,4-dioxo-(1H,3H)-quinazolines, process for their preparation and therapeutic composition containing them” (Société dite: BERRI-BALZAC, priority 1978, dated 1980).

Key:
Type in all cases: in vivo
chien Beagle = experiment: Diuresis in the Beagle dog after injection, urine output over one hour; settings: for Emission d'urine en ml TOTAL: TOTAL (60 mn)
rats mâles = experiment: Diuretic action with water overload in the rat (modified Lipschitz technique, oral); settings: for K = nbre de meq/L pour 100 g d'animal / Na = nbre de meq/L pour 100 g d'animal / dV = pourcentage du volume d'urine émise par rapport au lot témoin et ramené à 100 g de poids corporel: rat, oral, surcharge hydrique; for K = nbre de meq/L pour 100 g d'animal / Na = nbre de meq/L pour 100 g d'animal: 6 h urine; for dV = pourcentage du volume d'urine émise par rapport au lot témoin et ramené à 100 g de poids corporel: 6 h; for diurèse: summary in words of tableaux I à III
From the text: (§1) L'étude de l'activité diurétique a été effectuée comme suit : • l'expérience a été réalisée en utilisant la technique de LIPSCHITZ & Coll. (J. Pharm. Exp. Ther. 1943, 79, p. 97) modifiée pour la circonstance.
(§2) Des lots de 6 rats mâles, pesant environ 150 g, mis à jeun et privés de boisson la veille de l'essai, ont été placés par deux dans des cages à métabolisme pour une durée de 6 heures.
Les produits à essayer ont été administrés par voie orale, à la sonde, en même temps qu'une surcharge hydrique (eau du robinet à 37 °C), à raison de 5 ml pour 100 g de poids corporel.
(§3) Les volumes urinaires ont été recueillis et mesurés toutes les heures, et la quantité d'urine excrétée est donnée en ml par heure et par rat.
(§4) Les dosages du chlore, du sodium et du potassium sont effectués sur les prélèvements de 6 heures et sont exprimés en Meq par litre d'urine et par 100 g de rat.
(§5) A partir de ces chiffres et par rapport aux témoins, des pourcentages d'augmentation ou de diminution de la diurèse ont pu être calculés.
L'excrétion urinaire est donnée par le rapport : [formula]
L'activité diurétique est obtenue en faisant le rapport : • E.U. traités • E.U. témoins
Dans le tableau I figure l'action diurétique avec surcharge hydrique pour les composés A, B et C, et pour le furosémide et l'hydrochlorothiazide.

RAT = experiment: Diuretic action with water-and-sodium overload in the rat; settings: for fuite de potassium: rat
From the text: as §1, §2, §3, §4, §5
Dans le tableau II figure l'action diurétique avec surcharge hydrosodée pour le composé A et le furosémide.

[1] = 2 mg/kg, une heure, versus témoin

`CN(C)n1c(=O)[nH]c2cc(Cl)c(S(N)(=O)=O)cc2c1=O` [Composé A, Chloro-7 diméthylamino-3 dioxo-2,4 (1H,3H) sulfonamido-6 quinazoline] was tested. Which “sodium éliminé dans le volume d'urine émis” value (chien Beagle; 2 mg/kg, une heure) did it give?
The value was about 10 fois celui du témoin.

And the “la diurèse est multipliée par” value (chien Beagle; [1])?
Its value is 600/100.

What about the “taux de potassium multiplié par” value (chien Beagle; [1]) of the same compound?
Its value is 1,2.

What about the “Emission d'urine en ml 0,5 mn” value (chien Beagle; Dose I.V. 1 mg/kg, 0,5 mn) of the same compound?
The value was 3,5 ml.

What about the “Emission d'urine en ml 5-10 mn” value (chien Beagle; Dose I.V. 1 mg/kg) of the same compound?
Its value is 5,0 ml.

What about the “Emission d'urine en ml - 20 mn” value (chien Beagle; Dose I.V. 1 mg/kg) of the same compound?
The value was 8,5 ml.

What about the “Emission d'urine en ml - 30 mn” value (chien Beagle; Dose I.V. 1 mg/kg) of the same compound?
Its value is 7,0 ml.

What about the “Emission d'urine en ml - 40 mn” value (chien Beagle; Dose I.V. 1 mg/kg) of the same compound?
The value was 9,0 ml.

What about the “Emission d'urine en ml - 50 mn” value (chien Beagle; Dose I.V. 1 mg/kg) of the same compound?
Its value is 8,0 ml.

And the “Emission d'urine en ml - 60mn” value (chien Beagle; Dose I.V. 1 mg/kg)?
Its value is 9,0 ml.

What about the “Emission d'urine en ml TOTAL” value (chien Beagle; Dose I.V. 1 mg/kg) of the same compound?
The value was 50,0 ml.

And the “Emission d'urine en ml 0,5 mn” value (chien Beagle; Dose I.V. 2 mg/kg, 0,5 mn)?
Its value is 8,0 ml.

And the “Emission d'urine en ml 5-10 mn” value (chien Beagle; Dose I.V. 2 mg/kg)?
The value was 14,5 ml.

And the “Emission d'urine en ml - 20 mn” value (chien Beagle; Dose I.V. 2 mg/kg)?
The value was 20,5 ml.

And the “Emission d'urine en ml - 30 mn” value (chien Beagle; Dose I.V. 2 mg/kg)?
Its value is 18,5 ml.

And the “Emission d'urine en ml - 40 mn” value (chien Beagle; Dose I.V. 2 mg/kg)?
Its value is 15,5 ml.

What about the “Emission d'urine en ml - 50 mn” value (chien Beagle; Dose I.V. 2 mg/kg) of the same compound?
The value was 11,5 ml.

And the “Emission d'urine en ml - 60mn” value (chien Beagle; Dose I.V. 2 mg/kg)?
The value was 8,5 ml.

What about the “Emission d'urine en ml TOTAL” value (chien Beagle; Dose I.V. 2 mg/kg) of the same compound?
The value was 97,0 ml.

And the “Emission d'urine en ml 0,5 mn” value (chien Beagle; Dose I.V. 5 mg/kg, 0,5 mn)?
The value was 9,5 ml.

What about the “Emission d'urine en ml 5-10 mn” value (chien Beagle; Dose I.V. 5 mg/kg) of the same compound?
Its value is 10,5 ml.

And the “Emission d'urine en ml - 20 mn” value (chien Beagle; Dose I.V. 5 mg/kg)?
Its value is 10,0 ml.

And the “Emission d'urine en ml - 30 mn” value (chien Beagle; Dose I.V. 5 mg/kg)?
Its value is 8,0 ml.

What about the “Emission d'urine en ml - 40 mn” value (chien Beagle; Dose I.V. 5 mg/kg) of the same compound?
Its value is 9,0 ml.

And the “Emission d'urine en ml - 50 mn” value (chien Beagle; Dose I.V. 5 mg/kg)?
The value was 5,5 ml.

What about the “Emission d'urine en ml - 60mn” value (chien Beagle; Dose I.V. 5 mg/kg) of the same compound?
Its value is 7,0 ml.

What about the “Emission d'urine en ml TOTAL” value (chien Beagle; Dose I.V. 5 mg/kg) of the same compound?
Its value is 59,5 ml.

And the “Emission d'urine en ml 0,5 mn” value (chien Beagle; Dose I.V. 10 mg/kg, 0,5 mn)?
The value was 4,0 ml.

What about the “Emission d'urine en ml 5-10 mn” value (chien Beagle; Dose I.V. 10 mg/kg) of the same compound?
The value was 8,0 ml.

What about the “Emission d'urine en ml - 20 mn” value (chien Beagle; Dose I.V. 10 mg/kg) of the same compound?
The value was 9,0 ml.

And the “Emission d'urine en ml - 30 mn” value (chien Beagle; Dose I.V. 10 mg/kg)?
Its value is 10,0 ml.

What about the “Emission d'urine en ml - 40 mn” value (chien Beagle; Dose I.V. 10 mg/kg) of the same compound?
Its value is 4,0 ml.

What about the “Emission d'urine en ml - 50 mn” value (chien Beagle; Dose I.V. 10 mg/kg) of the same compound?
The value was 8,0 ml.

What about the “Emission d'urine en ml - 60mn” value (chien Beagle; Dose I.V. 10 mg/kg) of the same compound?
The value was 7,5 ml.

What about the “Emission d'urine en ml TOTAL” value (chien Beagle; Dose I.V. 10 mg/kg) of the same compound?
The value was 50,5 ml.

What about the “dose avec laquelle la diurèse maximale au bout d'une heure est atteinte” value (chien Beagle; voie I.P., une heure) of the same compound?
The value was 2 mg/kg.

And the “K = nbre de meq/L pour 100 g d'animal” value (rats mâles; dose 0,1 mg/kg)?
The value was “+19 meq/L pour 100 g d'animal”.

And the “K = nbre de meq/L pour 100 g d'animal” value (rats mâles; dose 1 mg/kg)?
Its value is “+18 meq/L pour 100 g d'animal”.

What about the “Na = nbre de meq/L pour 100 g d'animal” value (rats mâles; dose 1 mg/kg) of the same compound?
The value was “+139,4 meq/L pour 100 g d'animal”.

And the “dV = pourcentage du volume d'urine émise par rapport au lot témoin et ramené à 100 g de poids corporel” value (rats mâles; dose 10 mg/kg)?
The value was “+38,3%”.

What about the “K = nbre de meq/L pour 100 g d'animal” value (rats mâles; dose 10 mg/kg) of the same compound?
The value was “+71 meq/L pour 100 g d'animal”.

And the “Na = nbre de meq/L pour 100 g d'animal” value (rats mâles; dose 10 mg/kg)?
Its value is “+551 meq/L pour 100 g d'animal”.

What about the “dV = pourcentage du volume d'urine émise par rapport au lot témoin et ramené à 100 g de poids corporel” value (rats mâles; dose 25 mg/kg) of the same compound?
The value was “+39,7%”.

What about the “K = nbre de meq/L pour 100 g d'animal” value (rats mâles; dose 25 mg/kg) of the same compound?
The value was “+67 meq/L pour 100 g d'animal”.

What about the “Na = nbre de meq/L pour 100 g d'animal” value (rats mâles; dose 25 mg/kg) of the same compound?
Its value is “+672 meq/L pour 100 g d'animal”.

What about the “dV = pourcentage du volume d'urine émise par rapport au lot témoin et ramené à 100 g de poids corporel” value (rats mâles; dose 50 mg/kg) of the same compound?
The value was “+23,6%”.

And the “K = nbre de meq/L pour 100 g d'animal” value (rats mâles; dose 50 mg/kg)?
The value was “+90 meq/L pour 100 g d'animal”.

What about the “Na = nbre de meq/L pour 100 g d'animal” value (rats mâles; dose 50 mg/kg) of the same compound?
The value was “+606 meq/L pour 100 g d'animal”.

What about the diurèse (rats mâles) of the same compound?
The diurèse was “augmentent la diurèse”.

And the “action diurétique par rapport au furosémide” value (RAT; 10 mg/kg composé A sensiblement égale à 25 mg/kg de furosémide)?
Its value is “sensiblement double”.

What about the fuite de potassium (RAT; dose 10 mg/kg (doses équivalentes)) of the same compound?
The fuite de potassium was 19%.

Which results are given for `NS(=O)(=O)c1cc(C(=O)O)c(NCc2ccco2)cc1Cl` [Furosémide, acide chloro-4 furfurylamino-2 sulfamoyl-5 benzoïque, reference compound]?
K = nbre de meq/L pour 100 g d'animal (rats mâles; dose 10 mg/kg): -19 meq/L pour 100 g d'animal; dV = pourcentage du volume d'urine émise par rapport au lot témoin et ramené à 100 g de poids corporel (rats mâles; dose 25 mg/kg): +18%; dV = pourcentage du volume d'urine émise par rapport au lot témoin et ramené à 100 g de poids corporel (rats mâles; dose 50 mg/kg): +76%; K = nbre de meq/L pour 100 g d'animal (rats mâles; dose 50 mg/kg): +84 meq/L pour 100 g d'animal; Na = nbre de meq/L pour 100 g d'animal (rats mâles; dose 50 mg/kg): +639 meq/L pour 100 g d'animal; diurèse (rats mâles): augmentent la diurèse; fuite de potassium (RAT; dose 25 mg/kg (doses équivalentes)): 30,3%

How did the “Na = nbre de meq/L pour 100 g d'animal” value (rats mâles; dose 0,1 mg/kg) turn out when `NS(=O)(=O)c1cc2c(cc1Cl)NCNS2(=O)=O` [Hydrochloro-thiazide, dioxo-1,1 chloro-6 dihydro-3,4 sulfamoyl-7 (1,2,4)H benzothiadiazine, reference compound] was run?
The value was “+6,9 meq/L pour 100 g d'animal”.

And the “dV = pourcentage du volume d'urine émise par rapport au lot témoin et ramené à 100 g de poids corporel” value (rats mâles; dose 1 mg/kg)?
Its value is “+38%”.

And the “K = nbre de meq/L pour 100 g d'animal” value (rats mâles; dose 1 mg/kg)?
Its value is “+29 meq/L pour 100 g d'animal”.

And the “Na = nbre de meq/L pour 100 g d'animal” value (rats mâles; dose 1 mg/kg)?
The value was “+374 meq/L pour 100 g d'animal”.

And the “dV = pourcentage du volume d'urine émise par rapport au lot témoin et ramené à 100 g de poids corporel” value (rats mâles; dose 10 mg/kg)?
Its value is “+40%”.

And the “K = nbre de meq/L pour 100 g d'animal” value (rats mâles; dose 10 mg/kg)?
Its value is “+22 meq/L pour 100 g d'animal”.

And the “Na = nbre de meq/L pour 100 g d'animal” value (rats mâles; dose 10 mg/kg)?
Its value is “+430 meq/L pour 100 g d'animal”.

What about the “dV = pourcentage du volume d'urine émise par rapport au lot témoin et ramené à 100 g de poids corporel” value (rats mâles; dose 25 mg/kg) of the same compound?
The value was “+48%”.

What about the “K = nbre de meq/L pour 100 g d'animal” value (rats mâles; dose 25 mg/kg) of the same compound?
Its value is “+44 meq/L pour 100 g d'animal”.

What about the “Na = nbre de meq/L pour 100 g d'animal” value (rats mâles; dose 25 mg/kg) of the same compound?
The value was “+504 meq/L pour 100 g d'animal”.

What about the diurèse (rats mâles) of the same compound?
Its diurèse is “augmentent la diurèse”.
